Among the data in publication PMC8778670, “Identification of an Orally Bioavailable, Brain-Penetrant Compound with Selectivity for the Cannabinoid Type 2 Receptor” (Molecules, 2022) are inhibition values, retold here.

The target in the test is T1, human CB1 receptors (Homo sapiens, UniProt P21554).
T1 construct: expressed in transfected cells; host or cells: CHO cells
Kind of test: Cannabinoid receptor [3H]CP-55,940 displacement binding assay, CB1. To be noted: 1 h; 10 µM compound; CHO cell membranes, 2.5 nM radioligand; read-out: Displacement of [3H]CP-55,940 from CB1. The procedure: The affinities of the compounds for CB1 and CB2 receptors were examined using displacement assays, as previously described. Briefly, cell membranes from CHO cells expressing human CB1 or human CB2 receptors were isolated using differential centrifugation. Test compounds reconstituted in DMSO and were incubated with the isolated membrane in binding buffer (50 mM Tris-HCl, 1 mM EDTA, 3 mM MgCl2, 5 mg/mL BSA, pH 7.4) along with 2.5 nM [^3H]CP-55,940. Total binding was assessed in the presence of equal concentration of DMSO, while non-specific binding was determined in the presence of 10 μM CP-55,940, and background binding was determined in wells lacking membrane. Following incubation at 30 °C for 60 min, the binding reactions were terminated by vacuum filtration through Whatman GF/C filters. The filters were then washed twice with ice-cold buffer (50 mM Tris-HCl, 1 mg/mL BSA). Liquid scintillation cocktail was added to each well and the total tritiated counts per minute were analyzed using a TopCount scintillation counter. Background counts were subtracted from all wells and the percent displacement from total binding was calculated.
The compounds were initially screened at 10 μM concentrations. If they produced at least ±30% displacement of the radioligand, then full competition curves were constructed. Ki values were calculated using GraphPad Prism (San Diego, CA, USA) and Kd values determined using a 1 site fit. All assays were run in technical and biological replicates so that the n = 5–6.
(In a radioligand displacement assay an active substance lowers the binding of a labelled ligand.)

T1 sequence (P21554 whole entry): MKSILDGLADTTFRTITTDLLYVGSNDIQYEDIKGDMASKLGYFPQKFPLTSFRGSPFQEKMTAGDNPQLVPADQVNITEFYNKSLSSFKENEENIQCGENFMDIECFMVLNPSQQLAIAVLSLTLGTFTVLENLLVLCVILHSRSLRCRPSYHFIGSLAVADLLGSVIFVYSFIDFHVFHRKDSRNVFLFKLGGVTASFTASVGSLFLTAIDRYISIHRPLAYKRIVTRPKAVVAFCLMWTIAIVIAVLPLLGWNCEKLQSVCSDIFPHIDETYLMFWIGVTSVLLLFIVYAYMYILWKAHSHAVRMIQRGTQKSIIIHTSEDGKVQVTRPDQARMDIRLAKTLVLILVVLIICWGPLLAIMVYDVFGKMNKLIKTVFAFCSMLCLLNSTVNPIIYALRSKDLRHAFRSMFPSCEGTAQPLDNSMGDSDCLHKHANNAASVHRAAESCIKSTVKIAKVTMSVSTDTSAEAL

Consider `O=C1c2ccc(Cl)cc2N/C(=N/N=C/c2cc3ccccc3s2)[C@@H]2CCCN12` [Compound 4k], for which the inhibition at 10 µM was found to be 41.3%.
